From PubChem BioAssay AID2060505 (Molecular Pharmacology Branch, DTP, NCI, 2025)

Tested on: 633275-114-R-J1-PDC complex spheroids, viability
Test: Anticancer human tumor 633275-114-R-J1-PDC patient-derived endometrial adenocarcinoma cell line growth inhibition [GQUAD]
Settings: for IC50: curve of first compound; for viability, T/C: stronger effect = lower value; active = viability on the fitted dose curve at most 10% of control; inactive = the rest
Description: DNA G-quadruplex Stabilizer Agents in Combinations in Complex Spheroids
A high-throughput screen of multi-cell type tumor spheroids was designed to identify active combinations of DNA G-quadruplex stabilizer agents and targeted small molecules. Complex spheroids include a stromal component modeled by human endothelial cells (HUVEC) and fibroblasts modeled by human mesenchymal stem cells (MSCs). The concentration ranges selected for each drug and investigational agent were based upon clinically achievable concentrations if the clinical Cmax of the agent was known.
Compounds. The drugs and investigational agents: pidnarulex (CX-5461; NSC782164), APTO-253 (NSC789042), BRACO-19 (NSC847499), peposertib (NSC802822), ceralasertib (NSC780249), elimusertib (NSC800525), camonsertib (NSC841442), AZD-1390 (NSC803789), olaparib (NSC753686), talazoparib (NSC767125), ART-558 (NSC835418), sotorasib (NSC818433), MRTX-1133 (NSC836407), SN-38 (NSC673596), topotecan (NSC609699), etoposide (NSC141540), doxorubicin (NSC123127), gemcitabine (NSC613327), 5-fluorouracil (NSC19893), paclitaxel (NSC125973), vemurafenib (NSC761431), panobinostat (NSC761190), R-306465 (JNJ-16241199; NSC773264), adavosertib (NSC754352), TP-3654 (NSC805149), carboplatin (NSC241240), KSQ-4279 (NSC840948), and staurosporine (NSC755774) were obtained from the National Cancer Institute (NCI) Developmental Therapeutics Program Chemical Repository (34). The FDA-approved anticancer drug set is available from the NCI Developmental Therapeutics Program. […] The stock solutions were prepared in dimethyl sulfoxide (DMSO, Sigma-Aldrich, St. Louis, MO, cat. D2650) at 800-fold the tested concentration and stored at -70 degrees C prior to their use. All drugs and investigational agents were tested over a range starting from a high concentration at or near the clinical Cmax and decreasing in half-log increments. If the clinical Cmax for an agent had not been determined, the highest concentration tested was 10 microM.
2.3 Cell Culture. All cells were maintained in an incubator at 37 degrees C and 5% CO2 with 95% humidity. The PDC lines were cultured according to standard operating procedures established by the NCI PDMR. All PDCs were thawed and cultured in Matrigel-coated flasks prepared with a working solution of 1X Ham's F-12 nutrient mix, without supplementation (Invitrogen, cat. 11765054), 100 U/mL penicillin-streptomycin (Invitrogen, cat. 15140122), and 2.5% Matrigel (Corning Inc., cat. 354248) for the first three passages. The 857933-349-R-J2-PDC line was cultured in 6C/Colon 1B media, which includes advanced DMEM/F-12 (Thermo Fisher Scientific, cat. 12634028), 10 mM HEPES (Thermo Fisher Scientific, cat. 15630080), 1X GlutaMAX supplement (Thermo Fisher Scientific, cat. 35050061), 0.1 mg/mL primocin (InvivoGen, cat. ant-pm-2), 10% defined fetal bovine serum, heat inactivated (HyClone Laboratories Inc., cat. SH30070.03HI), 50% L-WRN conditioned media (ATCC, cat. CRL-3276), 1.25 mM N-Acetyl-L-cysteine (Sigma-Aldrich, cat. A9165), 10 mM nicotinamide (Sigma-Aldrich, cat. N0636), 1X B-27 supplement (Thermo Fisher Scientific, cat. 17504044), 1X N-2 supplement (Thermo Fisher Scientific, cat. 17502048), 10 microM Y-27632 dihydrochloride (Tocris Bioscience, cat. 1254), and 50 ng/mL human EGF recombinant protein (Thermo Fisher Scientific, cat. PHG0311). The 485176-168-R4-J1-PDC line was cultured in Panc media, which includes all 6C/Colon 1B media components plus 100 ng/mL human FGF-10 (Thermo Fisher Scientific, cat. 100-26), 500 nM SB-431542 (Selleckchem, cat. S1067), and gastrin (Tocris, cat. 3006).
[…]

[1] = second compound 0.0316 µM, first compound 0.0316 µM
[2] = second compound 0.0316 µM, first compound 0.1 µM
[3] = second compound 0.0316 µM, first compound 0.316 µM
[4] = second compound 0.0316 µM, first compound 1 µM
[5] = second compound 0.0316 µM, first compound 3.16 µM
[6] = second compound 0.0316 µM, first compound 10 µM
[7] = second compound 0.1 µM, first compound 0.0316 µM
[8] = second compound 0.1 µM, first compound 0.1 µM
[9] = second compound 0.1 µM, first compound 0.316 µM
[10] = second compound 0.1 µM, first compound 1 µM
[11] = second compound 0.1 µM, first compound 3.16 µM
[12] = second compound 0.1 µM, first compound 10 µM
[13] = second compound 0.316 µM, first compound 0.0316 µM
[14] = second compound 0.316 µM, first compound 0.1 µM
[15] = second compound 0.316 µM, first compound 0.316 µM
[16] = second compound 0.316 µM, first compound 1 µM
[17] = second compound 0.316 µM, first compound 3.16 µM
[18] = second compound 0.316 µM, first compound 10 µM
[19] = second compound 1 µM, first compound 0.0316 µM
[20] = second compound 1 µM, first compound 0.1 µM
[21] = second compound 1 µM, first compound 0.316 µM
[22] = second compound 1 µM, first compound 1 µM
[23] = second compound 1 µM, first compound 3.16 µM
[24] = second compound 1 µM, first compound 10 µM
[25] = second compound 3.16 µM, first compound 0.0316 µM
[26] = second compound 3.16 µM, first compound 0.1 µM
[27] = second compound 3.16 µM, first compound 0.316 µM
[28] = second compound 3.16 µM, first compound 1 µM
[29] = second compound 3.16 µM, first compound 3.16 µM
[30] = second compound 3.16 µM, first compound 10 µM
[31] = second compound 10 µM, first compound 0.0316 µM
[32] = second compound 10 µM, first compound 0.1 µM
[33] = second compound 10 µM, first compound 0.316 µM
[34] = second compound 10 µM, first compound 1 µM
[35] = second compound 10 µM, first compound 3.16 µM
[36] = second compound 10 µM, first compound 10 µM
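Note: spheroids exposed to the agents for seven days.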
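Throughout, for viability, T/C: percent of DMSO vehicle control viability which is 100%.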

CC(C)n1c(=O)n(C)c2cnc3cc(F)c(-c4ccc(OCCCN5CCCCC5)nc4)cc3c21 + CN(C)c1ccc(Nc2c3ccc(NC(=O)CCN4CCCC4)cc3nc3cc(NC(=O)CCN4CCCC4)ccc23)cc1
< 31.6 nM: IC50 (second compound 10 µM)
inactive: viability, T/C [1] 115% | viability, T/C [2] 109% | viability, T/C [3] 102% | viability, T/C [4] 109% | viability, T/C [5] 102% | viability, T/C [6] 67.9% | viability, T/C [7] 102% | viability, T/C [8] 115% | viability, T/C [9] 98.2% | viability, T/C [10] 97.4% | viability, T/C [11] 97.4% | viability, T/C [12] 65.1% | viability, T/C [13] 102% | viability, T/C [14] 104% | viability, T/C [15] 98.7% | viability, T/C [16] 101% | viability, T/C [17] 86.1% | viability, T/C [18] 70.7% | viability, T/C [19] 99.8% | viability, T/C [20] 98.3% | viability, T/C [21] 113% | viability, T/C [22] 78.4% | viability, T/C [23] 85.1% | viability, T/C [24] 63.5% | viability, T/C [25] 84.4% | viability, T/C [26] 81.2% | viability, T/C [27] 60.4% | viability, T/C [28] 64.5% | viability, T/C [29] 50.3% | viability, T/C [30] 32.3% | viability, T/C [31] 29% | viability, T/C [32] 28.8% | viability, T/C [33] 22.1% | viability, T/C [34] 21.5% | viability, T/C [35] 17.9% | viability, T/C [36] 9.88%
> 10000 nM: IC50 (second compound 0.0316 µM) | IC50 (second compound 0.1 µM) | IC50 (second compound 0.316 µM) | IC50 (second compound 1 µM)
2550 nM: IC50 (second compound 3.16 µM)

COc1cccc2c1C(=O)c1c(O)c3c(c(O)c1C2=O)CC(O)(C(=O)CO)CC3OC1CC(N)C(O)C(C)O1 (centres undefined) + CN(C)c1ccc(Nc2c3ccc(NC(=O)CCN4CCCC4)cc3nc3cc(NC(=O)CCN4CCCC4)ccc23)cc1
73.2 nM: IC50 (second compound 0.316 µM)
inactive: viability, T/C [1] 62.9% | viability, T/C [2] 48.1% | viability, T/C [3] 32% | viability, T/C [4] 20.6% | viability, T/C [7] 62.7% | viability, T/C [8] 45% | viability, T/C [9] 31% | viability, T/C [10] 18.3% | viability, T/C [13] 63.6% | viability, T/C [14] 43.5% | viability, T/C [15] 30.1% | viability, T/C [16] 18.9% | viability, T/C [19] 59.1% | viability, T/C [20] 42% | viability, T/C [21] 33.6% | viability, T/C [22] 15.2% | viability, T/C [25] 56.9% | viability, T/C [26] 35.7% | viability, T/C [27] 29.4% | viability, T/C [28] 16.1% | viability, T/C [31] 25.3% | viability, T/C [32] 17.3% | viability, T/C [33] 10%
< 31.6 nM: IC50 (second compound 10 µM)
91.8 nM: IC50 (second compound 0.0316 µM)
65.5 nM: IC50 (second compound 1 µM)
77.9 nM: IC50 (second compound 0.1 µM)
active: viability, T/C [5] 1.62% | viability, T/C [6] 2.01% | viability, T/C [11] 1.63% | viability, T/C [12] 2.02% | viability, T/C [17] 2.31% | viability, T/C [18] 1.97% | viability, T/C [23] 3.04% | viability, T/C [24] 1.66% | viability, T/C [29] 2.59% | viability, T/C [30] 1.1% | viability, T/C [34] 7.22% | viability, T/C [35] 0.49% | viability, T/C [36] 0.61%
47.1 nM: IC50 (second compound 3.16 µM)
